Reference: patent US8921372B2, “Inhibitors of hepatitis C virus” (Theravance Biopharma R&D IP, LLC, priority 2010, dated 2014)
Like-named read-outs stand apart in the source and are kept apart here.

Experiments:
[1] = tested on: HCV genotype 1b replicon cell line (APC144; Huh7 cell background); assay: HCV Genotype 1b Replicon Assay (Renilla luciferase readout); assay type: cell-based; details: Hepatitis C virus, Huh-7; read-out: Genotype 1b (pEC50 class, HCV genotype 1b replicon assay) (converted)
Source text: Assay 1: HCV Genotype 1b Replicon Assay
The HCV genotype 1b replicon cell line was obtained from Apath LLC (Brooklyn, N.Y.) (APC144; Huh7 cell background). This subgenomic replicon contains the N-terminus of the HCV core protein fused to the neomycin-resistance selectable marker. The EMCV IRES lies downstream and drives expression of humanized Renilla luciferase fused to the non-structural proteins NS3-NS5B. This cell line was used to determine compound potency using the luciferase activity readout as a measurement of compound inhibition of replicon levels.
(§1) Cells were grown at 37° C. in a 5% CO2 humidified incubator in DMEM (Invitrogen) with 10% FBS (HyClone), 1×NEAA (Invitrogen), 1× Pen-Strep (Invitrogen), and 500 μg/mL G418 (Invitrogen). On day 1 of the assay, cells were plated at 10,000 cells/well in white 96-well tissue culture plates (Costar) in 200 μL media lacking G418. Four hours later, once the cells have adhered, the media was removed and replaced with media (no G418) containing dose-responses of test compounds. Compounds were initially diluted in DMSO and then diluted another 200× in media to bring the final DMSO concentration down to 0.5%. The cells were incubated with test compounds for 48 hours. At the end of the incubation period, media and compound were removed from the plates and the luciferase activity was determined using Promega Renilla-Glo reagents.
To analyze the data, the luciferase activity was plotted vs. the compound concentration, and EC50 values were determined from a 4-parameter robust fit model with the GraphPad Prism software package (GraphPad Software, Inc., San Diego, Calif.). Results are expressed as the negative decadic logarithm of the EC50 value, pEC50.
Test compounds having a higher pEC50 value in this assay show greater inhibition of HCV genotype 1b replication.

[2] = tested on: HCV genotype 1a replicon cell line (APC89; Huh7.5 cell background); assay: HCV Genotype 1a Replicon Assay (NS3-specific protease activity readout); assay type: cell-based; details: Hepatitis C virus
Method: Assay 2: HCV Genotype 1a Replicon Assay
The HCV genotype 1a replicon cell line was obtained from Apath LLC (APC89; Huh7.5 cell background). This subgenomic replicon contains the N-terminus of the HCV core protein fused to the neomycin-resistance selectable marker. The EMCV IRES lies downstream and drives expression of the non-structural proteins NS3-NS5B. Compound potencies were determined using the NS3-specific protease activity in lysates as a measurement of compound inhibition of replicon levels.
as §1, with “850” for “500”, “15,000” for “10,000”, “black” for “white”, “had” for “have”, “48 or 72” for “48”, “plates.” for “plates and the luciferase activity was determined using Promega Renilla-Glo reagents.”
To determine the NS3-specific protease activity in lysates, the cells were lysed at room temperature in 50 μL/well of 50 mM Hepes pH 7.5, 150 mM NaCl, 15% Glycerol, 0.15% Triton X-100, 10 mM DTT for 20 minutes with shaking. 50 μL of an NS3/4a protease-specific FRET substrate (Anaspec RET S1 Cat#22991) was then added to the wells at a final concentration of 15 μM. The plates were incubated at 37° C. for 20 minutes, which corresponds to a timepoint at which the protease activity is still in the linear phase. Protease activity was determined by measuring fluorescence (Excitation: 340 nm; Emission: 509 nm).
To analyze the data, the fluorescence was plotted vs. the compound concentration, and EC50 values were determined from a 4-parameter robust fit model using GraphPad Prism software.

[3] = 72 hour incubation, read-out: Genotype 1a (pEC50 class, HCV genotype 1a replicon assay) (converted)

| SMILES | EC50 [1] | EC50 [2, 3] | EC50 ([2]; compounds incubated for 48 hours, read-out: Genotype 1a (pEC50 class, HCV genotype 1a replicon assay), * results (converted)) |
| --- | --- | --- | --- |
| CNC(=O)N1CCN(c2ccc(C(=O)Nc3cc(F)c(-c4ccc(-c5c[nH]c([C@@H]6CCCN6C(=O)[C@@H](NC(=O)OC)C(C)C)n5)cc4)c(F)c3)cn2)[C@H](C)C1 [Example 43] | < 0.1 nM | 0.1 to 1 nM |  |
| COC(=O)N[C@H](C(=O)N1CCC[C@H]1c1nc(-c2ccc(-c3cc(F)c(NC(=O)c4ccc(N5CCN(C(=O)[C@]6(C)CCCN6C(=O)CO)C[C@H]5C)nc4)cc3OC(F)(F)F)cc2)c[nH]1)C(C)C [Example 27-48] | < 0.1 nM | < 0.1 nM |  |
| COC(=O)N[C@H](C(=O)N1CCC[C@H]1c1nc(-c2ccc(-c3c(F)cc(NC(=O)c4ccc(N5CCN(C(=O)C6CC6)C[C@H]5C)nc4)cc3F)cc2)c[nH]1)C(C)C [Example 42] | < 0.1 nM | 0.1 to 1 nM |  |
| COC(=O)N[C@H](C(=O)N1CCC[C@H]1c1nc(-c2ccc(-c3ccc(C(=O)Nc4ccc(N5CCN(C(=O)[C@]6(C)CCCN6C(=O)C(C)(C)O)C[C@H]5C)nc4)cc3OC(F)(F)F)cc2)c[nH]1)C(C)C [Example 69] | < 0.1 nM | 0.1 to 1 nM |  |
| CCN(CC)[C@@H](C(=O)N1CCC[C@H]1c1nc(-c2ccc(-c3ccc(NC(=O)c4ccc(N5CCN(C(=O)C6CC6)CC5)cc4)cc3)cc2)c[nH]1)c1ccccc1 [Example 9, 4-(4-Cyclopropanecarbonyl-piperazin-1-yl)-N-(4′-{2-[(S)-1-((R)-2-diethylamino-2-phenyl-acetyl)-pyrrolidin-2-yl]-1H-imidazol-4-yl}-biphenyl-4-yl)-benzamide] | < 0.1 nM |  | 0.1 to 1 nM |
| COC(=O)N[C@H](C(=O)N1CCC[C@H]1c1nc(-c2ccc(-c3ccc(NC(=O)c4ccc(N5CCN(C(=O)C6CC6)CC5)cc4)cc3F)cc2)c[nH]1)C(C)C [Example 8, {(S)-1-[(S)-2-(4-{4′-[4-(4-cycloproanecarbonyl-piperazin-1-yl)-benzoylamino]-2′-fluoro-biphenyl-4-yl}-1H-imidazol-2-yl)-pyrrolidine-1-carbonyl]-2-methyl-propyl}-carbamic acid methyl ester] | < 0.1 nM | 1 to 10 nM |  |
| CNC(=O)N1CCN(c2ccc(C(=O)Nc3cc(OC(F)(F)F)c(-c4ccc(-c5c[nH]c([C@@H]6CCCN6C(=O)[C@@H](NC(=O)OC)C(C)C)n5)cc4)cc3Cl)cn2)[C@H](C)C1 [Example 27-68] | < 0.1 nM | < 0.1 nM |  |
| COC(=O)N[C@H](C(=O)N1CCC[C@H]1c1nc(-c2ccc(-c3cc(F)c(NC(=O)c4ccc(N5CCN(C(=O)Cn6cccn6)C[C@H]5C)nc4)cc3OC(F)(F)F)cc2)c[nH]1)C(C)C [Example 27-36] | < 0.1 nM | < 0.1 nM |  |
| CNC(=O)N1CCN(c2ccc(C(=O)Nc3ccc(-c4ccc(-c5c[nH]c([C@@H]6CCCN6C(=O)[C@@H](NC(=O)OC)C(C)C)n5)cc4)c(C(F)(F)F)c3)cn2)[C@H](C)C1 [Example 36] | < 0.1 nM | 0.1 to 1 nM |  |
| COC(=O)N[C@H](C(=O)N1CCC[C@H]1c1nc(-c2ccc(-c3cc(F)c(NC(=O)c4ccc(N5CCN(C(=O)[C@H]6CC6(C)C)C[C@H]5C)nc4)cc3C(F)(F)F)cc2)c[nH]1)C(C)C [Example 51, [(S)-1-((S)-2-{4-[4′-({6-[(R)-4-((S)-2,2-Dimethyl-cyclopropanecarbonyl)-2-methyl-piperazin-1-yl]-pyridine-3-carbonyl}-amino)-5′-fluoro-2′-trifluoromethyl-biphenyl-4-yl]-1H-imidazol-2-yl}-pyrrolidine-1-carbonyl)-2-methyl-propyl]carbamic acid methyl ester] | < 0.1 nM | < 0.1 nM |  |
| COC(=O)N[C@H](C(=O)N1CCC[C@H]1c1nc(-c2ccc(-c3ccc(NC(=O)c4ccc(N5CCN(C(=O)C6CC6)C[C@H]5C)nc4)cc3)cc2)c[nH]1)C(C)C [Example 12, ((S)-1-{(S)-2-[4-(4′-{[6-((R)-4-Cyclopropanecarbonyl-2-methyl-piperazin-1-yl)-pyridine-3-carbonyl]-amino}-biphenyl-4-yl)-1H-imidazol-2-yl]-pyrrolidine-1-carbonyl}-2-methyl-propyl)-carbamic acid methyl ester] | < 0.1 nM | 0.1 to 1 nM |  |
| COC(=O)N[C@H](C(=O)N1CCC[C@H]1c1nc(-c2ccc(-c3c(F)cc(NC(=O)c4ccc(N5CCN(C(=O)c6c[nH]cn6)C[C@H]5C)nc4)cc3F)cc2)c[nH]1)C(C)C [Example 44] | < 0.1 nM | 0.1 to 1 nM |  |
| COC(=O)N[C@H](C(=O)N1CCC[C@H]1c1nc(-c2ccc(-c3ccc(NC(=O)c4ccc(N5CCN(C(=O)[C@H]6CC6(C)C)C[C@H]5C)nc4)cc3OC(F)(F)F)nc2)c[nH]1)C(C)C [Example 76, {(S)-1-[(S)-2-(4-{6-[4-({6-[(R)-4-((S)-2,2-Dimethyl-cyclopropanecarbonyl)-2-methyl-piperazin-1-yl]-pyridine-3-carbonyl}-amino)-trifluoromethoxyphenyl]-pyridin-3-yl}-1H-imidazol-2-yl)-pyrrolidine-1-carbonyl]-2-methyl-propyl}-carbamic acid methyl ester] |  | 0.1 to 1 nM |  |
| COC(=O)N[C@H](C(=O)N1CCC[C@H]1c1nc(-c2ccc(-c3cc(F)c(NC(=O)c4ccc(N5CCN(C(=O)NC(C)C)C[C@H]5C)nc4)cc3OC(F)(F)F)cc2)c[nH]1)C(C)C [Example 27-39] |  | 0.1 to 1 nM |  |
| COC(=O)N[C@H](C(=O)N1CCC[C@H]1c1nc(-c2ccc(-c3cc(Cl)c(NC(=O)c4ccc(N5CCN(C(=O)c6c[nH]cn6)C[C@H]5C)nc4)cc3OC(F)(F)F)cc2)c[nH]1)C(C)C [Example 27-66] |  | < 0.1 nM |  |
| COC(=O)N[C@H](C(=O)N1CCC[C@H]1c1nc(-c2ccc(-c3ccc(NC(=O)c4ccc(N5C[C@H](C)N(C(=O)c6c[nH]cn6)C[C@H]5C)nc4)c(C)n3)cc2)c[nH]1)C(C)C [Example 75] |  | 1 to 10 nM |  |
| COC(=O)N[C@H](C(=O)N1CCC[C@H]1c1nc(-c2ccc(-c3cc(Cl)c(NC(=O)c4ccc(N5CCN(C(=O)[C@]6(C)CCCN6C(=O)CO)C[C@H]5C)nc4)cc3OC(F)(F)F)cc2)c[nH]1)C(C)C [Example 27-76] |  | < 0.1 nM |  |
| CCOc1cc(NC(=O)c2ccc(N3CCN(C(=O)c4c[nH]cn4)C[C@H]3C)nc2)ccc1-c1ccc(-c2c[nH]c([C@@H]3CCCN3C(=O)[C@@H](NC(=O)OC)C(C)C)n2)cc1 [Example 24] |  | 0.1 to 1 nM |  |
| COC(=O)N[C@H](C(=O)N1CCC[C@H]1c1nc(-c2ccc(-c3cc(OC)c(NC(=O)c4ccc(N5CCN(C(=O)c6c[nH]cn6)C[C@H]5C)nc4)cc3OC(F)(F)F)cc2)c[nH]1)C(C)C [Example 27-29] |  | 0.1 to 1 nM |  |
| COCCNC(=O)N1CCC[C@@]1(C)C(=O)N1CCN(c2ccc(C(=O)Nc3cc(OC(F)(F)F)c(-c4ccc(-c5c[nH]c([C@@H]6CCCN6C(=O)[C@@H](NC(=O)OC)C(C)C)n5)cc4)cc3Cl)cn2)[C@H](C)C1 [Example 27-74] |  | < 0.1 nM |  |
| CNC(=O)C1CCC[C@@]1(C)C(=O)N1C[C@@H](C)N(c2ccc(C(=O)Nc3cc(OC(F)(F)F)c(-c4ccc(-c5c[nH]c([C@@H]6CCCN6C(=O)[C@@H](NC(=O)OC)C(C)C)n5)cc4)cc3Cl)cn2)C[C@@H]1C (stereo partly shown) [Example 28-42] |  | < 0.1 nM |  |
| COC(=O)N[C@H](C(=O)N1CCC[C@H]1c1nc(-c2ccc(-c3cc(F)c(NC(=O)c4ccc(N5CCN(C(=O)c6ncccn6)C[C@H]5C)nc4)cc3OC(F)(F)F)cc2)c[nH]1)C(C)C [Example 27-35] |  | 0.1 to 1 nM |  |
